Source: patent US20180271930A1, “METHOD FOR RAISING POULTRY” (priority 2015, published 2018)

Key:
[1] = Examination 6: body weight at 21 days old after GSSG feed (0.01% or 0.05%) for 3 days; assay type: in vivo, broiler chicks; conditions: n = 12
Description: Newly hatched broiler chicks (Ross Breeders Ltd.) were fed with a feed composition containing GSSG at 0.01% by mass or 0.05% by mass for 3 days. […] Three groups, which were a control group, a GSSG addition group (0.01% by mass), and a GSSG addition group (0.05% by mass), were set. In each group, 6 males and 6 females were tested. Chicks received at 0 day old were fed with a test feed composition (initial-phase feed composition) during 72 hours after the receipt. […] Their body weights were measured. A feed composition used as an initial-phase feed composition, for which the level of GSSG was set to 0.01% by mass or […], is a composition prepared by adding GSSG at 0.01% by mass or 0.1% by mass to a composition (ME3,100 kcal/kg, CP21) containing corn, soybean meal, corn gluten meal, fat and oil, calcium carbonate (powder), tricalcium phosphate, dietary salt, DL-methionine, L-lysine chloride, choline chloride, and vitamins/minerals in accordance with the NRC requirements. The feed composition (ME3,100 kcal/kg, CP21) free of GSSG used in Examination 1 was used for the control group. […] An ammonium salt was used as GSSG. The GSSG contained 95.6% by mass of oxidized glutathione, and the content of reduced glutathione mixed therein was 0.1% by mass or less.

[2] = Examination 4: body weight of chicks raised until 35 days old after feeding GSSG or GSH for 3 days; assay type: in vivo, broiler chicks; conditions: 0.01% by mass additive in feed for 3 days; n = 6, average ± standard deviation
Description: Newly hatched broiler chicks (Ross Breeders Ltd.) were tested. A control group (=additive-free group), a GSSG addition group (0.01% by mass), and a GSH addition group (0.01% by mass) each consisting of 5 males and 5 females were set and fed with a feed composition for 3 days. […] At this timing, 2 males and 2 females in each group were slaughtered to collect blood and skeletal muscles. The gene expression levels of the MyoD family (myogenin, myostatin, and Pax7) were observed. […] Statistics were analyzed using a mixed model in consideration of a gender difference and an interaction between males and females. An ammonium salt was used as oxidized glutathione (GSSG). The GSSG contained 95.6% by mass of oxidized glutathione, and the content of reduced glutathione mixed therein was 0.1% by mass or less. […] A feed composition, for which the amount of oxidized glutathione (GSSG) added was set to 0.01% by mass, is described in Examination 1. A feed composition, for which the amount of reduced glutathione (GSH) added was set to 0.01% by mass, was prepared by adding 0.01% by mass of GSH, instead of 0.01% by mass of GSSG, to the GSSG-containing feed composition described in detail in Examination 1.

## oxidized glutathione [GSSG]
[1]; GSSG 0.01% by mass in feed for 3 days
  21-day-old weight: 961 ± 84 g
[1]; GSSG 0.05% by mass in feed for 3 days
  21-day-old weight: 986 ± 67 g
[2]
  Weight, 14 days old: 524.5 ± 37.0 g
  Weight, 35 days old: 2164 ± 178 g
